Results published in the NIST ThermoML archive (doi:10.1016/j.fluid.2011.01.018).
± gives the expanded uncertainty stated by the source.

Tests used:
[1] = xn = mol fraction of the nth substance listed; conditions: 101 kPa, Liquid, Vibrating tube method
[2] = 101 kPa, Liquid, Vibrating tube method

c1ccccc1 [benzene] + CC(C)CC(C)(C)C
[1], x1 = 1
Conditions	mass density [kg/m3]
293 K	878.98 ± 0.16
303 K	868.3 ± 0.16
313 K	857.57 ± 0.16
323 K	846.76 ± 0.17

c1ccccc1 [benzene] + C1CCCCC1
[1], x1 = 1
Conditions	mass density [kg/m3]
293 K	878.98 ± 0.16
303 K	868.3 ± 0.16
313 K	857.57 ± 0.16
323 K	846.76 ± 0.17

C1CCCCC1 [cyclohexane] + c1ccccc1
mass density [kg/m3], [1]
Conditions	293 K	303 K	313 K	323 K
x2 = 0	778.54 ± 0.16	769.13 ± 0.16	759.6 ± 0.16	749.94 ± 0.17
x2 = 0.1	784.99 ± 0.16	775.47 ± 0.16	765.87 ± 0.16	756.14 ± 0.16
x2 = 0.1805	790.71 ± 0.16	781.14 ± 0.16	771.46 ± 0.16	761.67 ± 0.16
x2 = 0.2347	794.92 ± 0.16	785.3 ± 0.16	775.57 ± 0.16	765.73 ± 0.16
x2 = 0.3029	800.47 ± 0.16	790.79 ± 0.16	781 ± 0.16	771.1 ± 0.16
x2 = 0.3801	807.1 ± 0.16	797.33 ± 0.16	787.47 ± 0.16	777.5 ± 0.16
x2 = 0.4453	813.09 ± 0.16	803.25 ± 0.16	793.32 ± 0.16	783.27 ± 0.16
x2 = 0.5223	820.56 ± 0.16	810.63 ± 0.16	800.62 ± 0.16	790.48 ± 0.16
x2 = 0.5814	826.62 ± 0.16	816.62 ± 0.16	806.53 ± 0.16	796.34 ± 0.16
x2 = 0.6563	834.72 ± 0.16	824.62 ± 0.16	814.44 ± 0.16	804.14 ± 0.16
x2 = 0.7135	841.21 ± 0.16	831.03 ± 0.16	820.77 ± 0.16	810.41 ± 0.16
x2 = 0.7654	847.44 ± 0.16	837.18 ± 0.16	826.83 ± 0.16	816.41 ± 0.16
x2 = 0.8191	854.16 ± 0.16	843.82 ± 0.16	833.39 ± 0.16	822.89 ± 0.16
x2 = 0.8771	861.75 ± 0.16	851.31 ± 0.16	840.79 ± 0.16	830.19 ± 0.16
x2 = 0.9161	867.03 ± 0.16	856.52 ± 0.16	845.95 ± 0.16	835.28 ± 0.17

c1ccccc1 [benzene]
[2]
Conditions	mass density [kg/m3]
293 K	878.98 ± 0.16
303 K	868.3 ± 0.16
313 K	857.57 ± 0.16
323 K	846.76 ± 0.17

C1CCCCC1 [cyclohexane]
[2]
Conditions	mass density [kg/m3]
293 K	778.54 ± 0.16
303 K	769.13 ± 0.16
313 K	759.6 ± 0.16
323 K	749.94 ± 0.17

CC(C)CC(C)(C)C [2,2,4-trimethylpentane] + c1ccccc1
mass density [kg/m3], [1]
Conditions	x2 = 0	x2 = 0.1248	x2 = 0.1642	x2 = 0.3682	x2 = 0.4538	x2 = 0.502	x2 = 0.5388	x2 = 0.6023	x2 = 0.6896	x2 = 0.9443
293 K	691.88 ± 0.19	704.06 ± 0.19	708.26 ± 0.19	733.74 ± 0.19	746.53 ± 0.18	754.34 ± 0.18	760.7 ± 0.18	772.44 ± 0.18	790.37 ± 0.18	859.13 ± 0.17
303 K	683.64 ± 0.2	695.66 ± 0.19	699.8 ± 0.19	724.94 ± 0.19	737.57 ± 0.19	745.27 ± 0.18	751.54 ± 0.18	763.15 ± 0.18	780.86 ± 0.18	848.73 ± 0.17
313 K	675.3 ± 0.2	687.16 ± 0.2	691.24 ± 0.2	716.05 ± 0.19	728.51 ± 0.19	736.12 ± 0.19	742.33 ± 0.19	753.77 ± 0.18	771.25 ± 0.18	838.26 ± 0.17
323 K	666.84 ± 0.2	678.53 ± 0.2	682.55 ± 0.2	707.04 ± 0.19	719.33 ± 0.19	726.85 ± 0.19	732.96 ± 0.19	744.28 ± 0.18	761.54 ± 0.18	827.7 ± 0.17

CC(C)CC(C)(C)C [2,2,4-trimethylpentane]
[2]
Conditions	mass density [kg/m3]
293 K	691.88 ± 0.19
303 K	683.64 ± 0.2
313 K	675.3 ± 0.2
323 K	666.84 ± 0.2
